Literature values in patent US9828573B2, “Alcohol composition and derivatives thereof” (SHELL OIL COMPANY, priority 2015, dated 2017).

Test system: Proponibacterium acnes
Details: Journal of Natural Products Vol. 57, No. 1, pp. 9-17, January 1994

CCCCCCCCCCCCCCCO [Normal 1-pentadecanol, 1-pentadecanol]
activity against Proponibacterium acnes: specific activity
